According to ChEMBL document CHEMBL1275476, “Emergence of macrolide resistance gene mph(B) in Streptococcus uberis and cooperative effects with rdmC-like gene” (2008):
≈ marks a conversion by molar mass, not a printed value.

Assays:
Format in all cases: functional
Streptococcus uberis [1] = assay: Antimicrobial activity against Streptococcus uberis UCN60 expressing mph(B) and rdmC-like genes by broth microdilution method
Streptococcus uberis [2] = assay: Antimicrobial activity against Streptococcus uberis UCN61 by broth microdilution method
Enterococcus faecalis [3] = assay: Antimicrobial activity against Enterococcus faecalis JH2-2 harboring pAT392 containing rdmC-like gene by broth microdilution method
Enterococcus faecalis [4] = assay: Antimicrobial activity against Enterococcus faecalis JH2-2 harboring empty vector by broth microdilution method
Escherichia coli [5] = assay: Antimicrobial activity against Escherichia coli AG100A harboring pAT392 containing mph(B) and rdmC-like genes by broth microdilution method
Staphylococcus aureus [6] = assay: Antimicrobial activity against Staphylococcus aureus RN4220 harboring pAT392 containing mph(B) gene by broth microdilution method
Enterococcus faecalis [7] = assay: Antimicrobial activity against Enterococcus faecalis JH2-2 harboring pAT392 containing mph(B) gene by broth microdilution method
Escherichia coli [8] = assay: Antimicrobial activity against Escherichia coli AG100A harboring pAT392 containing rdmC-like gene by broth microdilution method
Enterococcus faecalis [9] = assay: Antimicrobial activity against Enterococcus faecalis JH2-2 harboring pAT392 containing mph(B) and rdmC-like gene by broth microdilution method
Escherichia coli [10] = assay: Antimicrobial activity against Escherichia coli AG100A harboring empty vector by broth microdilution method
Escherichia coli [11] = assay: Antimicrobial activity against Escherichia coli AG100A harboring pAT392 containing mph(B) gene by broth microdilution method
Staphylococcus aureus [12] = assay: Antimicrobial activity against Staphylococcus aureus RN4220 harboring empty vector by broth microdilution method
Staphylococcus aureus [13] = assay: Antimicrobial activity against Staphylococcus aureus RN4220 harboring pAT392 containing rdmC-like gene by broth microdilution method
Staphylococcus aureus [14] = assay: Antimicrobial activity against Staphylococcus aureus RN4220 harboring pAT392 containing mph(B) and rdmC-like genes by broth microdilution method

| Molecule | MIC (Streptococcus uberis [1]) | MIC (Streptococcus uberis [2]) | MIC (Enterococcus faecalis [3]) | MIC (Enterococcus faecalis [4]) | MIC (Escherichia coli [5]) | MIC (Staphylococcus aureus [6]) | MIC (Enterococcus faecalis [7]) | MIC (Escherichia coli [8]) | MIC (Enterococcus faecalis [9]) | MIC (Escherichia coli [10]) | MIC (Escherichia coli [11]) | MIC (Staphylococcus aureus [12]) | MIC (Staphylococcus aureus [13]) | MIC (Staphylococcus aureus [14]) |
| --- | --- | --- | --- | --- | --- | --- | --- | --- | --- | --- | --- | --- | --- | --- |
| CC[C@H]1OC(=O)[C@H](C)[C@@H](O[C@H]2C[C@@](C)(OC)[C@@H](O)[C@H](C)O2)[C@H](C)[C@@H](O[C@@H]2O[C@H](C)C[C@H](N(C)C)[C@H]2O)[C@](C)(O)C[C@@H](C)CN(C)[C@H](C)[C@@H](O)[C@]1(C)O [AZITHROMYCIN] | 0.12 µg/mL (≈ 0.16 µM) | 0.12 µg/mL (≈ 0.16 µM) |  |  |  |  |  |  |  |  |  |  |  |  |
| CCC[C@@H]1C[C@@H](C(=O)N[C@@H]([C@H]2O[C@H](SC)[C@H](O)[C@@H](O)[C@H]2O)[C@H](C)Cl)N(C)C1 [CLINDAMYCIN] | 0.03 µg/mL (≈ 0.0706 µM) | 0.03 µg/mL (≈ 0.0706 µM) | 2 µg/mL (≈ 4.71 µM) | 2 µg/mL (≈ 4.71 µM) | 2 µg/mL (≈ 4.71 µM) | 0.06 µg/mL (≈ 0.141 µM) | 2 µg/mL (≈ 4.71 µM) | 2 µg/mL (≈ 4.71 µM) | 2 µg/mL (≈ 4.71 µM) | 2 µg/mL (≈ 4.71 µM) | 2 µg/mL (≈ 4.71 µM) | 0.06 µg/mL (≈ 0.141 µM) | 0.06 µg/mL (≈ 0.141 µM) | 0.06 µg/mL (≈ 0.141 µM) |
| CC[C@H]1OC(=O)[C@H](C)[C@@H](O[C@H]2C[C@@](C)(OC)[C@@H](O)[C@H](C)O2)[C@H](C)[C@@H](O[C@@H]2O[C@H](C)C[C@H](N(C)C)[C@H]2O)[C@](C)(O)C[C@@H](C)C(=O)[C@H](C)[C@@H](O)[C@]1(C)O [ERYTHROMYCIN] | 0.06 µg/mL (≈ 0.0818 µM) | 0.06 µg/mL (≈ 0.0818 µM) | 0.25 µg/mL (≈ 0.341 µM) | 0.25 µg/mL (≈ 0.341 µM) | 64 µg/mL (≈ 87.2 µM) | 0.25 µg/mL (≈ 0.341 µM) | 0.25 µg/mL (≈ 0.341 µM) | 2 µg/mL (≈ 2.73 µM) | 0.25 µg/mL (≈ 0.341 µM) | 2 µg/mL (≈ 2.73 µM) | 64 µg/mL (≈ 87.2 µM) | 0.25 µg/mL (≈ 0.341 µM) | 0.25 µg/mL (≈ 0.341 µM) | 0.25 µg/mL (≈ 0.341 µM) |
| CO[C@@H]1[C@@H](O[C@@H]2O[C@H](C)[C@@H](O[C@H]3C[C@@](C)(O)[C@@H](OC(=O)CC(C)C)[C@H](C)O3)[C@H](N(C)C)[C@H]2O)[C@@H](CC=O)C[C@@H](C)[C@@H](O)/C=C/C=C/C[C@@H](C)OC(=O)C[C@H]1OC(C)=O [JOSAMYCIN] | 0.25 µg/mL (≈ 0.302 µM) | 0.25 µg/mL (≈ 0.302 µM) | 1 µg/mL (≈ 1.21 µM) | 1 µg/mL (≈ 1.21 µM) | 16 µg/mL (≈ 19.3 µM) | 1 µg/mL (≈ 1.21 µM) | 1 µg/mL (≈ 1.21 µM) | 8 µg/mL (≈ 9.66 µM) | 1 µg/mL (≈ 1.21 µM) | 8 µg/mL (≈ 9.66 µM) | 16 µg/mL (≈ 19.3 µM) | 1 µg/mL (≈ 1.21 µM) | 1 µg/mL (≈ 1.21 µM) | 1 µg/mL (≈ 1.21 µM) |
| CC[C@H]1OC(=O)C[C@@H](O)[C@H](C)[C@@H](O[C@@H]2O[C@H](C)[C@@H](O[C@H]3C[C@@](C)(O)[C@@H](O)[C@H](C)O3)[C@H](N(C)C)[C@H]2O)[C@@H](CC=O)C[C@@H](C)C(=O)/C=C/C(C)=C/[C@@H]1CO[C@@H]1O[C@H](C)[C@@H](O)[C@@H](OC)[C@H]1OC [TYLOSIN] | 0.5 µg/mL (≈ 0.546 µM) | 0.5 µg/mL (≈ 0.546 µM) | 1 µg/mL (≈ 1.09 µM) | 1 µg/mL (≈ 1.09 µM) | > 128 µg/mL | 1 µg/mL (≈ 1.09 µM) | 1 µg/mL (≈ 1.09 µM) | 16 µg/mL (≈ 17.5 µM) | 16 µg/mL (≈ 17.5 µM) | 16 µg/mL (≈ 17.5 µM) | 128 µg/mL (≈ 140 µM) | 1 µg/mL (≈ 1.09 µM) | 1 µg/mL (≈ 1.09 µM) | 16 µg/mL (≈ 17.5 µM) |
| SPIRAMYCIN | 8 µg/mL | 0.5 µg/mL | 2 µg/mL | 0.5 µg/mL | 1000 µg/mL | 8 µg/mL | 8 µg/mL | 200 µg/mL | 64 µg/mL | 8 µg/mL | 400 µg/mL | 4 µg/mL | 4 µg/mL | 32 µg/mL |
